According to US20190380985A1, “Composition Containing N-acetyldiaminobutyric Acid” (bitop AG, priority 2016, published 2019):

Assays:
HaCaT cells [1] = assay: IR protection test using LDH assay; format: cell-based, human; conditions: 5 h preincubation, 44° C. for 30 min, 60 h at 37° C., FIG. 4; for liberation of LDH (protection against heat/IR): compared to untreated cells
Excerpt: Infrared (IR) radiation brings about an increase in skin temperature, which is associated with an increase in the number of free radicals and increased expression of heat shock inducing metalloproteases (MMP). A permanent exposure to IR radiation may result in an increase in cell death rate through apoptosis. In order to determine the potential of NADA and, for comparative purposes, ectoine on eukaryotic cells regarding the protection against heat and IR radiation, HaCaT cells (human keratinocyte cell line) were applied to 96 wells of a microtiter plate. After a uniform cell layer had formed, the test substances were applied to the medium and the cells were incubated for 5 hours at a temperature of 37° C. Following preincubation, the cells were exposed to a temperature of 44° C. for 30 min. The cells were then incubated at 37° C. for a further 60 hours.

SIRC cell line = assay: Matsuo moisturizing assay (calcein AM viability after air-drying); format: cell-based, rabbit; conditions: 25 mM; 15 min treatment, 45 min air-drying; FIG. 1
Method: The skin/mucosal moisturizing effect of N-acetyldiaminobutyric acid was investigated using a Matsuo moisturizing assay (Matsuo, Br J. Opthalmol. 85: 610-612). An SIRC cell line isolated from rabbit eyes was used for this purpose. For the experiments, 30,000 cells were placed in each well of a 96 well microtiter plate. After approx. 24 h a complete monolayer had formed in each case. The supernatant was then removed and 100 μl of the test substances diluted in PBS (phosphate buffered salt solution) were applied to the cells for 15 min. Then, the supernatant was removed again. At this stage, the cells were not washed with PBS. Under sterile conditions the cells were air-dried over a period of 45 min. Following this, the cells were washed three times with PBS. To determine cell viability calcein AM staining (calcein-acetoxymethyl ester) was used. Calcein is a fluorescent dye. After the transport of calcein AM into the living cell, the ester groups were cleaved by esterases of the cell resulting in the formation of calcein causing a strongly green fluorescent complex to be formed with calcium ions present in the cell. […] In turn, a high cell viability attests to good wetting properties of the test substances.
The result is shown in FIG. 1 in comparison to the effect of ectoine and hyaluronic acid. […]

HaCaT cells [2] = assay: UV protection test via TEER assay; format: cell-based, human; conditions: 100 mM, overnight preincubation, 45 min UV-B, 24 h later; FIG. 2
Excerpt: A characteristic feature of epithelial as well as endothelial cell layers is the formation of intercellular connections leading to a dense cell barrier separating the basolateral (abluminal) side from the apical (luminal) side. The cell layers form selectively permeable interfaces between different compartments, in this way controlling the diffusion in intercellular space as well as intracellular transport processes. This is ensured by tight junctions (paracellular barriers in the intercellular space). The integrity of these barriers is determined by the so-called TEER method (transepithelial/transendothelial electrical resistance). A defined DC voltage is applied to two electrodes on both sides of the cell layer. The flowing current is measured, which yields the respective resistance results according to Ohm's law.
HaCaT cells were used, a human keratinocyte cell line. These were applied to PET membranes (“ThinCerts®”). It was waited until the cells had formed a complete and intact monolayer. […]
In order to accomplish a closer investigation of the protective effect of membranes stabilized by N-acetyldiaminobutyric acid against UV radiation, keratinocytes were incubated overnight in a cell culture medium with PBS, NADA (50 mM and 100 mM) and other compounds. […] The cells were incubated for another 24 hours and the TEER values were determined. […]

Phenion skin model = assay: UV protection test using LDH assay on full thickness skin model; format: cell-based; conditions: 4 h incubation, compared with PBS, FIG. 3
Method: In order to further evaluate the UV, protection effect of NADA, a full thickness skin model of Henkel (Phenion skin, model) was used. This is based on a bovine collagen structure, which is morphologically equivalent to human skin and thus allows examinations to be easily carried out. The Phenion skin model was incubated with the test substances for 4 hours. These were applied directly to the top surface. Subsequently, the Phenion skin model was exposed to UV-B radiation for 2 hours. […] The skin model was then incubated for another 24 hours and the LDH (lactate dehydrogenase) value was determined, which is a measure of the degree of damage caused to the cells.

TR146 cell line = assay: Membrane stabilization, calcein AM assay, TR146; format: cell-based, human; conditions: different concentrations, compared to PBS only; FIG. 5
Method: This is a buccal human cell line of oral mucosa cells. The cells were placed in a microtiter plate having 96 wells. As soon as confluence was reached, the cells were washed with PBS and provided with different concentrations of N-acetyldiaminobutyric acid. The negative control contained only PBS, the positive control cDPG (cyclic 2,3-diphosphoglycerate). Following incubation, the cells were again washed with PBS and incubated with 5 μM of calcein AM for a period of 45 min. The hydrolysis of calcein AM, which itself is non-fluorescent, by intracellular esterases produces calcein, a hydrophilic, highly fluorescent compound that is retained in the cytoplasm of the cells. Accordingly, high fluorescence is indicative of high cell viability.

LLC-PK1 cell line = assay: Membrane stabilization, calcein AM assay, LLC-PK1; format: cell-based; conditions: LLC-PK1 cells; FIG. 6
HaCaT cells [3] = assay: ATP assay on aged keratinocytes (cell metabolism); format: cell-based, human; conditions: 5 h incubation in PBS, compared to PBS only (0%), FIG. 7
Excerpt: HaCaT cells (a keratinocyte cell line) were placed on a 96-well microtiter plate and a cell culture was allowed to form for a period of at least one week until cell growth was stopped by contact inhibition. Following this, the cells were cultivated for another week to simulate the ageing process. The cell culture medium was changed over to PBS with the addition of NADA and reference substances such as glucosylglycerol, ectoine (28Extremoin) and Myramaze®, a commercially available anti-aging product. The cells were incubated for a period of 5 hours. Finally, an ATP assay was prepared, whereby a high ATP synthesis indicates a high degree of metabolism and thus attests to cell vitality. The results can be seen from FIG. 7.

claudin-1 = assay: Claudin-1 specific ELISA after heat stress (tight junctions); format: cell-based, human; conditions: 6 h pretreatment 10-175 mM, 44° C. 30 min, FIG. 8
Excerpt: The examination focused on the upregulation of claudins, membrane proteins as constituents of tights junctions, which close off the gaps between the cells of the epithelium so that a barrier is formed. This barrier controls the penetration of molecules via the epithelium. Specifically, the pore occluding claudin-1 was examined. An increased expression of claudin-1 leads to higher imperviousness of the epithelial membrane and increased transepithelial electrical resistance (TEER). The permeability is thus reduced.
The epithelial cell line (HaCaT) used for the experiment was cultivated in wells on a microtiter plate until a closed cell monolayer had developed. Subsequently, the cells were pretreated with NADA for 6 hours in the cell culture medium (10, 25, 50, 75, 100 and 175 mM). The cells were then suddenly exposed to a temperature of 44° C. for a period of 30 min. before being kept at 37° C. for another 24 and 48 hours respectively. The cells were harvested and the lysate was analyzed using a claudin-1 specific ELISA (enzyme-linked immunosorbent assay). The results can be seen from FIG. 8.

Row | SMILES | liberation of LDH (protection against heat/IR) (HaCaT cells [1]) | viability of the cells and thus the humidification after drying of the cells (SIRC cell line) | change of the TEER value after UV-B radiation (HaCaT cells [2]) | LDH value after UV exposure (UV protection) (Phenion skin model; 2 h UV-B, 24 h later) | LDH value before UV exposure (Phenion skin model; before UV-B) | protection against IR radiation relative to ectoine (HaCaT cells [1]) | calcein fluorescence (stabilization of epithelial cells) (TR146 cell line) | calcein fluorescence (membrane stabilizing effect) (LLC-PK1 cell line) | ATP activity (cell metabolism) (HaCaT cells [3]) | expression of claudin-1 (claudin-1; then 24 hours at 37° C.) | expression of claudin-1 (claudin-1; then 48 hours at 37° C.)
1 | CC1=NC(C(=O)O)CCN1 (stereo not drawn) [ectoine, 2-methyl-1,4,5,6-tetrahydropyrimidine-4-carboxylic acid, reference compound] | offer protection against intense IR radiation |  |  |  |  |  |  |  |  |  | 
2 | CC(=O)NCCC(N)C(=O)O (stereo not drawn) [NADA, N-acetyldiaminobutyric acid] | offer protection against intense IR radiation | comparable results to ectoine | significant protection of the cell membrane | shows UV protection properties | approximately the same for PBS and NADA | more effective than ectoine | significant, concentration-dependent stabilization of the epithelial cells | membrane stabilizing effect | reactivation of aged keratinocytes | distinct increase in the expression of claudin-1 | distinct increase in the expression of claudin-1
